Series [1] deals with T1, BChE (Homo sapiens, UniProt P06276). Conditions: read-out: IC50 against BChE; cited from earlier work.
The conditions of series [2]: cited from earlier work.
Series [3] deals with T2, AChE (Homo sapiens, UniProt P22303). To be noted: read-out: IC50 against AChE; cited from earlier work.
In series [4] the target is T1, BChE. The series is described as follows: BChE inhibition, modified Ellman's method. It is filed as biochemical. As to the method:
Cholinesterase inhibitory activities of all derivatives were assessed using the modified Ellman’s method. Briefly, 20 µL AChE 0.18 units/mL, or 20 µL BChE 0.162 units/mL, and 20 µL DTNB (301 μM) were added to 200 μL sodium phosphate buffer (0.1 mol/L, pH = 7.4) in separate wells of a 96-well microplate and gently mixed. […]. The absorbance of each well was measured at 415 nm using a microplate reader. IC50 and inhibition values were calculated with the software curve expert as the mean of three independent experiments and expressed as mean ± SEM [25, 26].
In general terms: In Ellman's method for cholinesterases, released thiocholine reacts with DTNB.

The target of series [5] is T2, AChE. The series is described as follows: biochemical. Format: biochemical. Conditions: for inhibition at 50 µM: mean ± S.E.
The target of series [6] is T1, BChE. The series can be described thus: Enzyme kinetic study against BChE (Lineweaver–Burk and secondary plots). It is filed as biochemical. From the text:
[…]. As the concentration of inhibitor 4k increased, the Michaelis–Menten constant (Km) increased, and the maximum reaction rate (Vmax) remained unaffected.
The Ki value provides important information about the strength of the interaction between the inhibitor and the enzyme (Fig. 4).
[…]. A Lineweaver–Burk plot was generated to determine the inhibition type and calculate the Michaelis–Menten constant (Km). Secondary plots were constructed to determine the experimental inhibitor constant (Ki).

The mark [7] stands for this setting: mean ± S.E, read-out: BChE (IC50).
Setting [8] is: single graphs behind the mean BChE IC50 of Table 2, read-out: IC50 (individual IC50 graphs, Table S1).

Values joined by “and” are separate entries in the source; they are usually repeats but may differ in a detail not shown here. Equal values may be shown once. “Also recorded” adds a separate entry of the source. Read-outs that look alike come from different tables or passages of the source.

T1 sequence (P06276 29-602): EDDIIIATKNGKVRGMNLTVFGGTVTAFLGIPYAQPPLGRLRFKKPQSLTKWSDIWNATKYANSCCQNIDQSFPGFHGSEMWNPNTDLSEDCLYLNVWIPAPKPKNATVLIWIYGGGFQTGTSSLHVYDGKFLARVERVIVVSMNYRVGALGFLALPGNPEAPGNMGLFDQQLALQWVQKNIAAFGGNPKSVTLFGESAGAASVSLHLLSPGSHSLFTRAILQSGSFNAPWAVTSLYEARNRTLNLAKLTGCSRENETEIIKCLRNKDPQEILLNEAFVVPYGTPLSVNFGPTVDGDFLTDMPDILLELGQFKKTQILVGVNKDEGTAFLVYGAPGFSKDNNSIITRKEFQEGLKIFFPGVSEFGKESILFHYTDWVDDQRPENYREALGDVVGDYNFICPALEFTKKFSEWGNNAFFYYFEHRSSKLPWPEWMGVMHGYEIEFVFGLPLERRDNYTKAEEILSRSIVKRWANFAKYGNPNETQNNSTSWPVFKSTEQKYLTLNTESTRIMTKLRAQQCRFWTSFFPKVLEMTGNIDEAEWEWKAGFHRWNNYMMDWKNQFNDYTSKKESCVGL
T2 sequence (P22303 32-614): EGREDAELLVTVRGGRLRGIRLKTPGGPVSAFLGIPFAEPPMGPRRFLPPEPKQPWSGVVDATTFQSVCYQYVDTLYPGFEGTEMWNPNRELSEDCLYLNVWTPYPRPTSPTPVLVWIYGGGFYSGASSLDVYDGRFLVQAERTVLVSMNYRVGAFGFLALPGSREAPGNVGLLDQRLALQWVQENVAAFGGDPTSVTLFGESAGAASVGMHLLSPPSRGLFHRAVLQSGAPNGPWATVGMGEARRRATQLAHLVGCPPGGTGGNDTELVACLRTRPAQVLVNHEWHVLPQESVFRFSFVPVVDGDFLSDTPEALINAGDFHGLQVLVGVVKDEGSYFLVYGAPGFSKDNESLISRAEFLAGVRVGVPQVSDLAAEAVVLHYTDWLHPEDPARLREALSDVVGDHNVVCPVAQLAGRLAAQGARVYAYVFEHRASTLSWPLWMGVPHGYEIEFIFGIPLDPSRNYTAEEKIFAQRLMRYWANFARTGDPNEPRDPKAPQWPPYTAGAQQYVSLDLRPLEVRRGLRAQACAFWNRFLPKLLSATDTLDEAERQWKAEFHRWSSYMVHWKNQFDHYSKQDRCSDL

Usually IC50 stands for the concentration at which inhibition is half-maximal. As for `CCOc1ccc2c(c1)OC/C(=C\c1ccc(OCCN3CCCCC3)cc1)C2=O` [A], at BChE [1], the IC50 is 0.854 ± 0.04 µM.

As to `O=C(O)c1coc2ccc(OCc3ccccc3)cc2c1=O` [B], the figures for the IC50 on BChE [1] and on AChE [3] were 5.24 µM and 0.37 µM, respectively. In series [2], the “blood–brain barrier (BBB) permeability” value is 5.4 ± 0.3 × 10^−6 cm s^−1.

Usually inhibition stands for the percentage by which the read-out fell short of the control. A lower inhibition goes with little suppression. Consider `N#CC1=C(N)OC2=C(C(=O)CCC2)C1c1ccccc1` (stereo not drawn) [Compound 4a, 2-Amino-5-oxo-4-phenyl-5,6,7,8-tetrahydro-4H-chromene-3-carbonitrile], for which the inhibition at 50 µM came to 39.8 ± 1.39% at BChE [4] (mean ± S.E) and 21 ± 1.31% at AChE [5].

Regarding `N#CC1=C(N)OC2=C(C(=O)CCC2)C1c1ccc([N+](=O)[O-])cc1` (stereo not drawn) [Compound 4b, 2-Amino-4-(4-nitrophenyl)-5-oxo-5,6,7,8-tetrahydro-4H-chromene-3-carbonitrile], the figures for the inhibition at 50 µM at BChE [4] (mean ± S.E) and against AChE [5] were 58.7 ± 1.18% and 28.9 ± 2.56%, respectively. Also, the IC50 at BChE [4] (setting [7]) is 27.4 ± 2.01 µM; at BChE [4] (setting [8]), 28.8 µM and 26 µM.

Take `N#CC1=C(N)OC2=C(C(=O)CCC2)C1c1ccc(OCc2ccc(Cl)cc2)cc1` (stereo not drawn) [Compound 4c, 2-Amino-4-{4-[(4-chlorobenzyl)oxy]phenyl}-5-oxo-5,6,7,8-tetrahydro-4Hchromene-3-carbonitrile]: the inhibition at 50 µM on BChE [4] (mean ± S.E) worked out at 77.7 ± 3.77%; at AChE [5], 23.6 ± 1.2%. The IC50 was 0.89 ± 0.24 µM on BChE [4] (setting [7]); 1.07 µM and 0.72 µM at BChE [4] (setting [8]).

Turning to `N#CC1=C(N)OC2=C(C(=O)CCC2)C1c1ccc(OCc2ccc(Br)cc2)cc1` (stereo not drawn) [Compound 4d, 2-Amino-4-{4-[(4-bromobenzyl)oxy]phenyl}-5-oxo-5,6,7,8-tetrahydro-4Hchromene-3-carbonitrile], the inhibition at 50 µM on BChE [4] (mean ± S.E) came out at 67.8 ± 1.7%; against AChE [5], 23.4 ± 1%. In addition, the IC50 on BChE [4] (setting [7]) is 1.19 ± 0.31 µM; on BChE [4] (setting [8]) it was 1.41 µM and 0.97 µM.

Regarding `N#CC1=C(N)OC2=C(C(=O)CCC2)C1c1ccc(OCCN2CCOCC2)cc1` (stereo not drawn) [Compound 4e, 2-Amino-4-[4-(2-morpholinoethoxy)phenyl]-5-oxo-5,6,7,8-tetrahydro-4Hchromene-3-carbonitrile], the inhibition at 50 µM against BChE [4] (mean ± S.E) is 58.9 ± 0.93%; at AChE [5], 34.4 ± 3.1%. For the same molecule, the IC50 is 26.3 ± 3.34 µM on BChE [4] (setting [7]); 28.7 µM and 24 µM on BChE [4] (setting [8]).

For the molecule `N#CC1=C(N)OC2=C(C(=O)CCC2)C1c1cccc(OCc2ccc(Cl)cc2)c1` (stereo not drawn) [Compound 4f, 2-Amino-4-{3-[(4-chlorobenzyl)oxy]phenyl}-5-oxo-5,6,7,8-tetrahydro-4H-chromene-3-carbonitrile], the inhibition at 50 µM against BChE [4] (mean ± S.E) is 62 ± 7.24%; against AChE [5], 4.42 ± 0.57%. Moreover, the IC50 was 5.7 ± 0.68 µM on BChE [4] (setting [7]); 6.18 µM and 5.21 µM at BChE [4] (setting [8]). On AChE [5], the “inhibitory activity against AChE (in words)” value was “nearly inactive”.

For the molecule `N#CC1=C(N)OC2=C(C(=O)CCC2)C1c1cccc(OCc2ccc(Br)cc2)c1` (stereo not drawn) [Compound 4g, 2-Amino-4-{3-[(4-bromobenzyl)oxy]phenyl}-5-oxo-5,6,7,8-tetrahydro-4Hchromene-3-carbonitrile], the inhibition at 50 µM on BChE [4] (mean ± S.E) came to 57.3 ± 9.75%; against AChE [5], 15 ± 2.59%. Further, the IC50 on BChE [4] (setting [7]) is 13.1 ± 2.59 µM; on BChE [4] (setting [8]), 11.2 µM and 14.9 µM. The “inhibitory activity against AChE (in words)” value against AChE [5] is “nearly inactive”.

As for `N#CC1=C(N)OC2=C(C(=O)CCC2)C1c1ccccc1OCc1ccc(Cl)cc1` (stereo not drawn) [Compound 4h, 2-Amino-4-{2-[(4-chlorobenzyl)oxy]phenyl}-5-oxo-5,6,7,8-tetrahydro-4H-chromene-3-carbonitrile], the inhibition at 50 µM at BChE [4] (mean ± S.E) came to 21.3 ± 2.69%; at AChE [5], 7.35 ± 0.56%.

Consider `N#CC1=C(N)OC2=C(C(=O)CCC2)C1c1ccccc1OCc1cccc(Cl)c1` (stereo not drawn) [Compound 4i, 2-Amino-4-{2-[(3-chlorobenzyl)oxy]phenyl}-5-oxo-5,6,7,8-tetrahydro-4H-chromene-3-carbonitrile], for which the inhibition at 50 µM is 42.8 ± 1.22% on BChE [4] (mean ± S.E) and 19.4 ± 2.39% at AChE [5].

Consider `COc1ccc(COc2ccccc2C2C(C#N)=C(N)OC3=C2C(=O)CCC3)cc1` (stereo not drawn) [Compound 4j, 2-Amino-4-{2-[(4-methoxybenzyl)oxy]phenyl}-5-oxo-5,6,7,8-tetrahydro-4H-chromene-3-carbonitrile], for which the inhibition at 50 µM worked out at 38.3 ± 4.36% at BChE [4] (mean ± S.E) and 16.3 ± 0.63% against AChE [5].

A word on the Ki: it is a measure of affinity in units of concentration, obtained from inhibition or displacement. In the case of `COc1cc(C2C(C#N)=C(N)OC3=C2C(=O)CCC3)ccc1OCc1ccc(F)cc1` (stereo not drawn) [Compound 4k, 2-Amino-4-{4-[(4-fluorobenzyl)oxy]-3-methoxyphenyl}-5-oxo-5,6,7,8-tetrahydro-4H-chromene-3-carbonitrile], at BChE [6] (Lineweaver–Burk plot, Km increased, Vmax unaffected), the type of inhibition entry was “competitive-type inhibition; also recorded: competitive inhibitor”. In addition, the inhibitory constant (Ki) on BChE [6] (from secondary plot of slopes vs inhibitor concentration, R^2 = 0.9876, read-out: Ki (inhibition constant)) is 0.55 µM. Moreover, the inhibition at 50 µM came out at 80.5 ± 5.08% against BChE [4] (mean ± S.E) and 41.1 ± 2.33% on AChE [5]. Further, on BChE [4] (setting [7]), the IC50 was found to be 0.65 ± 0.13 µM.

Consider `COc1cc(C2C(C#N)=C(N)OC3=C2C(=O)CCC3)ccc1OCc1cccc(F)c1` (stereo not drawn) [Compound 4l, 2-Amino-4-{4-[(3-fluorobenzyl)oxy]-3-methoxyphenyl}-5-oxo-5,6,7,8-tetrahydro-4H-chromene-3-carbonitrile], for which the inhibition at 50 µM at BChE [4] (mean ± S.E) was found to be 76.1 ± 0.88%; against AChE [5], 33.6 ± 3.29%. For the same molecule, the IC50 at BChE [4] (setting [7]) was 2.63 ± 0.19 µM; on BChE [4] (setting [8]), 2.77 µM and 2.49 µM.

As for `COc1cc(C2C(C#N)=C(N)OC3=C2C(=O)CCC3)ccc1OCc1cccc(Cl)c1` (stereo not drawn) [Compound 4m, A-amino-4-{4-[(3-chlorobenzyl)oxy]-3-methoxyphenyl}-5-oxo-5,6,7,8-tetrahydro-4H-chromene-3-carbonitrile], the inhibition at 50 µM on BChE [4] (mean ± S.E) worked out at 69.7 ± 1.52%; at AChE [5], 12.9 ± 1.27%. Besides, the IC50 was 1.51 ± 0.2 µM at BChE [4] (setting [7]); 1.65 µM and 1.36 µM at BChE [4] (read-out: IC50 (individual IC50 graphs, Table S1)).

Regarding `O=C(NCCCCCCCCCCNc1c2c(nc3ccccc13)CCCC2)c1cc(=O)c2cc(O)ccc2o1` [E], the figures for the IC50 on BChE [1] and on AChE [3] were 1.5 ± 0.04 µM and 8 ± 0.2 µM, respectively. In series [2], the BBB permeability is recorded as 23.1 ± 0.1 × 10^−6 cm s^−1.

With `N#CC1=C(N)Oc2c(c(=O)oc3ccccc23)C1c1cc[n+](Cc2ccc(F)cc2)cc1` (stereo not drawn) [F], the half-maximal inhibitory concentration (IC50) on BChE [1] is 1.84 ± 0.12 µM.

Turning to `N#CC1=C(N)OC2=C(C(=O)CCC2)C1c1ccc(OCCN2CCCCC2)cc1` (stereo not drawn) [G], the IC50 is 8.1 ± 0.5 µM at BChE [1] and 20.4 ± 9.3 µM at AChE [3].

Values taken from publication PMC11007943 (BMC Chemistry, 2024).
